# Read-outs that look alike come from different tables or passages of the source.
# Key:
# [1] = test system: C. albicans ATCC 90819(R) (strain D); assay: MIC, broth microdilution (CLSI M27-A3), yeast strain D; assay type: cell-based; conditions: Candida albicans, ATCC90819; MIC-0, strain D, 35 °C 48 h
# Experimental: (§1) The final concentrations of compounds 3, 4, 7a, 7b, 9, and 16, as well as that of TOB tested in this study ranged from 0.24–62.5 μg/mL. CAS was used as a positive control and the final concentrations tested for CAS ranged from 0.03–31.3 μg/mL. Briefly, overnight yeast cultures were grown in yeast peptone dextrose (YPD) broth and the cell density was adjusted to an OD600 of 0.12 (~1 × 10^6 CFU/mL) by using a spectrophotometer. Yeast cell suspensions were further diluted to achieve 1–5 × 10^3 CFU/mL in RPMI 1640 medium, and 100 μL of these yeast cells was added to 96-well microtiter plates containing RPMI 1640 medium and titrated compounds. Each test was performed in triplicate. The plates were incubated at 35 °C for 48 h.
# [2] = test system: Candida glabrata clinical isolate CG3; assay: MIC, broth microdilution (CLSI M27-A3), CG3; assay type: cell-based; conditions: Nakaseomyces glabratus; MIC-0, CG3, 35 °C 48 h
# Experimental: as §1
# [3] = test system: Candida glabrata ATCC 2001 (strain H); assay: MIC, broth microdilution (CLSI M27-A3), yeast strain H; assay type: cell-based; conditions: Nakaseomyces glabratus, ATCC2001; MIC-0, strain H, 35 °C 48 h
# Experimental: as §1
# [4] = test system: Aspergillus flavus ATCC MYA-3631 (strain K); assay: MIC, filamentous fungi (CLSI M38-A2), strain K; assay type: cell-based; conditions: MIC-0, strain K, 35 °C 72 h
# Experimental: The spores were harvested from sporulating cultures growing on potato dextrose agar (PDA) by filtration through sterile glass wool and enumerated by using a hemocytometer (Hausser Scientific, Horsham, PA, USA) to obtain the desired inoculum size. Two-fold serial dilutions of compounds 3, 4, 7a, 7b, 9, and 16, as well as CAS and TOB were made in sterile 96-well microtiter plates to obtain the final concentration range of 0.24–62.5 μg/mL for TOB and TOB derivatives as well as 0.03–31.3 μg/mL for CAS in the RPMI 1640 medium. The spore suspensions were added to the wells to afford a final concentration of 5 × 10^5 spores/mL. The plates were incubated at 35 °C for 72 h. […] Each test was performed in triplicate.
# [5] = test system: seven C. albicans strains (A-G); assay: MIC across the panel of seven C. albicans strains; assay type: cell-based; conditions: Candida albicans; across all seven C. albicans strains tested
# Experimental: as §1
# Hemolytic activity assay = assay type: cell-based, murine; conditions: mouse, murine red blood cells (mRBCs); for hemolysis at 1 h, 0.48 μg/mL / hemolysis at 1 h, 0.975 μg/mL / hemolysis at 1 h, 1.95 μg/mL / hemolysis at 1 h, 3.9 μg/mL / hemolysis at 1 h, 7.8 μg/mL / hemolysis at 1 h, 15.6 μg/mL / hemolysis at 1 h, 31.3 μg/mL / hemolysis at 1 h, 62.5 μg/mL: mRBCs, 37 °C 1 h, ± SDEV; for hemolysis at 1 h: at their MIC values against the Aspergillus strains
# Experimental: (§2) The hemolytic activity of compounds 3, 4, 7a, 7b, and 9 as well as the parent compound TOB was determined by using previously described methods with minor modifications. Murine whole blood (1 mL) was suspended in 4 mL of PBS and centrifuged at 1000 rpm for 10 min at room temperature to obtain murine red blood cells (mRBCs). The mRBCs were washed four times in PBS and resuspended in the same buffer to a final concentration of 10^7 erythrocytes/mL. Two-fold serial dilutions of compounds 3, 4, 7a, 7b, and 9 were prepared using 100 μL of PBS buffer in Eppendorf tubes followed by the addition of 100 μL of mRBC suspension that made the final concentration of compounds and mRBCs to be 0.48–62.5 μg/mL and 5 × 10^6 erythrocytes/mL, respectively. The tubes were incubated at 37 °C for 1 h. The tubes with PBS buffer (200 μL) and Triton X-100® (1% v/v, 2 μL) served as the negative (blank) and positive controls, respectively. The percentage of hemolysis was calculated using the following equation: % hemolysis = [(absorbance of sample) − (absorbance of blank)] × 100/(absorbance of positive control).
# [6] = test system: murine red blood cells (mRBCs); assay: Hemolytic activity assay; assay type: cell-based; conditions: at 3.9 μg/mL, 2- to 8-fold their MIC values against the three C. neoformans clinical isolates
# Experimental: as §2
# A549 cell line = assay: In vitro cytotoxicity assay (resazurin), A549; assay type: cell-based, human; conditions: for IC50: Homo sapiens, A549, 24 h, resazurin
# Experimental: Mammalian cytotoxicity assays were performed as previously described with minor modifications. The normal human bronchial epithelial cells BEAS-2B and the human lung carcinoma epithelial cells A549 were grown in DMEM containing 10% fetal bovine serum (FBS) and 1% antibiotics. The confluent cells were then trypsinized with 0.05% trypsin and 0.53 mM EDTA, and resuspended in fresh DMEM medium. The cells were transferred into 96-well microtiter plates at a density of 3000 cells/well and were grown for 24 h. The following day, the medium was replaced by a fresh culture medium containing serially diluted compounds 3, 4, 7a, 7b, and 9, as well as the parent drug TOB at final concentrations of 0.48–62.5 μg/mL or sterile ddH2O (negative control). The cells were incubated for an additional 24 h at 37 °C with 5% CO2 in a humidified incubator. To evaluate cell survival, each well was treated with 10 μL (25 μg/mL) of resazurin sodium salt (Sigma-Aldrich) for 4–6 h. Metabolically active cells can convert resazurin (blue) to the highly fluorescent dye resorufin (pink), which was detected at λ560 excitation and λ590 emission wavelengths by using a SpectraMax M5 plate reader. Triton X-100® (1% v/v) gave the complete loss of cell viability and was used as the positive control. The percentage survival rates were calculated by using the following formula: % cell survival = [(fluorescence of sample) − (fluorescence of blank)] × 100/[(fluorescence of negative control) − (fluorescence of blank)].
# [7] = Aspergillus flavus, 72 h, read-out: MIC
SMILES,MIC [1] [µg/mL],MIC [2] [µg/mL],MIC [3] [µg/mL],"MIC [4, 7] [µg/mL]",MIC [4] [µg/mL],MIC [5] [µg/mL],"hemolysis at 1 h, 0.48 μg/mL (Hemolytic activity assay) [%]","hemolysis at 1 h, 0.975 μg/mL (Hemolytic activity assay) [%]","hemolysis at 1 h, 1.95 μg/mL (Hemolytic activity assay) [%]","hemolysis at 1 h, 3.9 μg/mL (Hemolytic activity assay) [%]","hemolysis at 1 h, 7.8 μg/mL (Hemolytic activity assay) [%]","hemolysis at 1 h, 15.6 μg/mL (Hemolytic activity assay) [%]","hemolysis at 1 h, 31.3 μg/mL (Hemolytic activity assay) [%]","hemolysis at 1 h, 62.5 μg/mL (Hemolytic activity assay) [%]",hemolysis at 1 h (Hemolytic activity assay) [%],mRBCs lysed [6],IC50 (A549 cell line) [µg/mL],"toxicity (in words) (A549 cell line; A549, 0.48-62.5 μg/mL, 24 h)"
"CCCCCCCCCCCCSC[C@H]1O[C@H](O[C@@H]2[C@@H](O)[C@H](O[C@H]3O[C@H](CN)[C@@H](O)C[C@H]3N)[C@@H](N)C[C@H]2N)[C@H](O)[C@@H](N)[C@@H]1O [Compound 3, O-3-Amino-3-deoxy-6-S-dodecyl-6-thio-α-D-glucopyranosyl-(1→6)-O-[2,6-diamino-2,3,6-trideoxy-α-D-ribo-hexopyranosyl-(1→4)]-2-deoxy-D-streptamine]",15.6,15.6,7.8,7.8 to 31.3,15.6,7.8 to 31.3,0,2.5 ± 2.3,6 ± 3.5,12 ± 1.9,18.6 ± 6.6,46.2 ± 2.3,55.5 ± 3.9,67 ± 4.6,12 to 74,up to 13%,–,–
"CCCCCCCCCCCCS(=O)(=O)C[C@H]1O[C@H](O[C@@H]2[C@@H](O)[C@H](O[C@H]3O[C@H](CN)[C@@H](O)C[C@H]3N)[C@@H](N)C[C@H]2N)[C@H](O)[C@@H](N)[C@@H]1O [Compound 4, O-3-Amino-3,6-dideoxy-6-(dodecylsulfonyl)-α-D-glucopyranosyl-(1→6)-O-[2,6-diamino-2,3,6-trideoxy-α-D-ribo-hexopyranosyl-(1→4)]-2-deoxy-D-streptamine]",15.6,3.9,15.6,–,–,7.8 to 31.3,0,0,6.6 ± 3.5,6 ± 1.9,10.7 ± 3.1,15.3 ± 5,24.9 ± 2.3,31.2 ± 6.6,4 to 32,up to 13%,> 62.5,–
"CCCCCCCCCCCC(=O)NC[C@H]1O[C@H](O[C@@H]2[C@@H](O)[C@H](O[C@H]3O[C@H](CN)[C@@H](O)C[C@H]3N)[C@@H](N)C[C@H]2N)[C@H](O)[C@@H](N)[C@@H]1O [Compound 9, O-3-Amino-3,6-dideoxy-6-[(1-oxododecyl)amino]-α-D-glucopyranosyl-(1→6)-O-[2,6-diamino-2,3,6-trideoxy-α-D-ribo-hexopyranosyl-(1→4)]-2-deoxy-D-streptamine]",62.5,15.6,31.3,–,–,15.6 to 62.5,0,0,2.5 ± 1.5,4.1 ± 1.5,10.1 ± 4.6,18.3 ± 5.4,26 ± 11.6,31.5 ± 1.5,4 to 32,up to 13%,> 62.5,–
"NC[C@H]1O[C@H](O[C@H]2[C@H](O)[C@@H](O[C@H]3O[C@H](CO)[C@@H](O)[C@H](N)[C@H]3O)[C@H](N)C[C@@H]2N)[C@H](N)C[C@@H]1O [TOB, tobramycin]",> 62.5,> 62.5,> 62.5,> 62.5,–,> 62.5,4.7 ± 3.9,9.3 ± 3.5,15.9 ± 1.9,15.9 ± 8.1,11.2 ± 4.6,15.3 ± 5,15.3 ± 2.7,21.1 ± 9.3,–,–,–,little to no toxicity

# Further lines, with some results ahead:
MIC [1] [µg/mL],MIC [2] [µg/mL],MIC [3] [µg/mL],"MIC [4, 7] [µg/mL]",MIC [4] [µg/mL],MIC [5] [µg/mL],SMILES,"hemolysis at 1 h, 0.48 μg/mL (Hemolytic activity assay) [%]","hemolysis at 1 h, 0.975 μg/mL (Hemolytic activity assay) [%]","hemolysis at 1 h, 1.95 μg/mL (Hemolytic activity assay) [%]","hemolysis at 1 h, 3.9 μg/mL (Hemolytic activity assay) [%]","hemolysis at 1 h, 7.8 μg/mL (Hemolytic activity assay) [%]","hemolysis at 1 h, 15.6 μg/mL (Hemolytic activity assay) [%]","hemolysis at 1 h, 31.3 μg/mL (Hemolytic activity assay) [%]","hemolysis at 1 h, 62.5 μg/mL (Hemolytic activity assay) [%]",hemolysis at 1 h (Hemolytic activity assay) [%],mRBCs lysed [6],IC50 (A549 cell line) [µg/mL],"toxicity (in words) (A549 cell line; A549, 0.48-62.5 μg/mL, 24 h)"
62.6,15.6,62.5,–,–,31.3 to 62.5,"CCCCCCCCCCc1cn(C[C@H]2O[C@H](O[C@@H]3[C@@H](O)[C@H](O[C@H]4O[C@H](CN)[C@@H](O)C[C@H]4N)[C@@H](N)C[C@H]3N)[C@H](O)[C@@H](N)[C@@H]2O)nn1 [Compound 7a, O-3-Amino-3,6-dideoxy-6-(4-decyl-1H-1,2,3-triazol-1-yl)-α-D-glucopyranosyl-(1→6)-O-[2,6-diamino-2,3,6-trideoxy-α-D-ribo-hexopyranosyl-(1→4)]-2-deoxy-D-streptamine]",0,0,15.6 ± 9.3,0,7.4 ± 3.1,14 ± 5.4,14.8 ± 1.9,14.8 ± 0.4,–,up to 13%,> 62.5,–
15.6,3.9,7.8,7.8 to 31.3,7.8,3.9 to 15.6,"CCCCCCCCCCCCc1cn(C[C@H]2O[C@H](O[C@@H]3[C@@H](O)[C@H](O[C@H]4O[C@H](CN)[C@@H](O)C[C@H]4N)[C@@H](N)C[C@H]3N)[C@H](O)[C@@H](N)[C@@H]2O)nn1 [Compound 7b, O-3-Amino-3,6-dideoxy-6-(4-dodecyl-1H-1,2,3-triazol-1-yl)-α-D-glucopyranosyl-(1→6)-O-[2,6-diamino-2,3,6-trideoxy-α-D-ribo-hexopyranosyl-(1→4)]-2-deoxy-D-streptamine]",0,0,14.8 ± 3.5,13.4 ± 6.2,24.6 ± 8.1,40.8 ± 5.4,55.5 ± 5.4,74.1 ± 0.8,12 to 74,up to 13%,> 62.5,–
